Assay results published in patent publication US20260365621A1, “Non-Hallucinogenic Tryptamine Compounds” (priority 2022, published 2026).
Where two headings read alike, the source gives them in different places.

How the values were obtained:
[1] = tested on: head twitch response in C57BL/6J male mice; assay type: in vivo
Method: The study of example 2 was performed using C57BL/6J male mice (25-30 g; Envigo, Milan, Italy). The animals were divided into groups of 10 animals each: (a) control, (b) vehicle, and (c) combinations of psilocyn (1 mg/kg) and pinoline (3 or 10 mg/kg). The treated mice were left to fast in the 12 hours prior to administration. Psilocyn and pinoline were resuspended in a solution of EtOH 20%. Mice were subjected to a singular oral administration of compounds. The vehicle group was given the EtOH 20% solution.
After administration, the animals were placed individually in transparent plexiglass cages. […] (See Halberstadt, Adam L., et al. “Differential contributions of serotonin receptors to the behavioral effects of indoleamine hallucinogens in mice.” Journal of psychopharmacology 25.11 (2011): 1548-1561.) (Sun, Yina, et al. “Effects of low-doses of methamphetamine on d-fenfluramine-induced head-twitch response (HTR) in mice during ageing and c-fos expression in the prefrontal cortex.” BMC neuroscience 24.1 (2023): 1-17.).

[2] = tested on: CAR-induced paw edema; assay: Carrageenan (CAR)-induced rat paw edema (plethysmometer); conditions: Psilocin alone at 3 and 10 mg/Kg
Method: A study was performed using male Sprague-Dawley rats (200-250 g; Envigo, Milan, Italy). Food and water were accessible ad libitum. Rats were concurrently subjected to a singular subplantar injection of CAR (100 μL of saline solution containing 1% CAR). […] Edema was expressed as the increase in paw volume (mL) after CAR injection relative to the pre-injection value for all animals. Scores were expressed as paw volume difference (mL).

[3] = tested on: 5-HT2A; conditions: Central Nervous System (CNS); cited from earlier work
[4] = tested on: mechanical allodynia / paw-withdrawal threshold after CAR injection; assay: Mechanical allodynia, Von Frey hair test after CAR injection; conditions: Psilocin alone at 3 and 10 mg/Kg
Method: A study was performed using male Sprague-Dawley rats (200-250 g; Envigo, Milan, Italy). Food and water were accessible ad libitum. Rats were concurrently subjected to a singular subplantar injection of CAR (100 μL of saline solution containing 1% CAR).
Mechanical allodynia was evaluated using a dynamic plantar Von Frey hair aesthesiometer on time 0 and 1, 2, 3, 4, 5, and 6 days post-injection (Bio-EVF4; Bioseb, Vitrolles, France) as previously described (D'Amico, R.; Fusco, R.; Siracusa, R.; Impellizzeri, D.; Peritore, A. F.; Gugliandolo, E.; Interdonato, L.; Sforza, A. M.; Crupi, R.; Cuzzocrea, S.; et al. Inhibition of P2X7 Purinergic Receptor Ameliorates Fibromyalgia Syndrome by Suppressing NLRP3 Pathway. Int. J. Mol. Sci. 2021, 22, 6471. https://doi.org/10.3390/ijms22126471). The device encloses a force transducer furnished with a plastic tip. When pressure is applied to the tip, the force applied is recorded. The tip was applied to the plantar area of the hind leg, and a rising upward force was exerted until the paw was withdrawn. The withdrawal threshold was defined as the force, expressed in grams, at which the mouse removed the paw.
To investigate whether Psilocin+Pinoline were able to reduce pain associated with CAR injection, a Von Frey test was performed.

[5] = tested on: 5-HT2A; conditions: Central Nervous System (CNS); cited from earlier work; remark: listed apart in the source

Row | SMILES | effect of pinoline on psilocin activity (head twitch) ([1]; pinoline 3 mg/kg with psilocin 1 mg/kg) | effect of pinoline on psilocin activity (head twitch) ([1]; pinoline 10 mg/kg with psilocin 1 mg/kg) | anti-inflammatory effects [2] | effect in head twitch test, 11-20 minutes ([1]; 10 mg/kg alone, after 11-20 minutes from administration) | number of head movements ([1]; 10 mg/kg, after 10 minutes from treatment) | activities caused by 5-HT2A binding in the CNS [3] | analgesic effects [4] | binding to 5-HT2A receptor [5]
1 | COc1ccc2[nH]c3c(c2c1)CCNC3 [Pinoline, pinoline] | prolonged the psilocin (1 mg/kg) activity | prolonged the psilocin (1 mg/kg) activity |  |  |  |  |  | 
2 | CN(C)CCc1c[nH]c2cccc(O)c12 [Psilocin, 4-hydroxy-N,N-dimethyltryptamine] |  |  | anti-inflammatory and analgesic effects | finished | important number of head movements | hallucinogenic, anxiolytic, and psychoactive activities | anti-inflammatory and analgesic effects | known to bind
3 | CN(C)CCc1c[nH]c2cccc(OP(=O)(O)O)c12 [Psilocybin, 4-phosphoryloxy-N,N-dimethyltryptamine] |  |  |  |  |  | hallucinogenic, anxiolytic, and psychoactive activities |  | known to bind
